Measurements from patent US10874103B2, “Antibacterial composition comprising an acetal or a long-chain alkyl hexitane ether” (TEREOS STARCH & SWEETENERS BELGIUM, priority 2014, dated 2020).
Like-named read-outs stand apart in the source and are kept apart here.

Columns and labels:
[1] = Critical micelle concentration (surfactant properties, Example 6); assay type: physicochemical
Source text: The physical, chemical and antimicrobial properties for the best products synthesized have been tested. These analyses show the different surfactant profiles, and the minimum inhibitory concentrations (MIC) for each compound on Gram-positive bacteria. The best surfactant and antimicrobial results are compared in Table 3.

[2] = system: Enterococci: E. faecium strains; assay: MIC microdilution on wider panel (Example 8), E. faecium strains; assay type: cell-based
Description: (§1) The cultures studied, freshly isolated (after incubation on a blood agar at 37° C. for 18 h), are taken up in sterile water (10 mL) until a 0.5 McFarland (Mc) suspension i.e. at 1 to 2×10^8 CFU (bacteria)/cm^3 is obtained. The bacterial suspension was then diluted to obtain a final concentration of 1×10^6 CFU/cm^3.
(§2) Each well contains an identical quantity of Mueller-Hinton medium (a rich medium for bacterial culture) and bacteria with final 0.5×10^6 CFU/cm^3.
(§3) The test compounds of interest are solubilized in ethanol or DMSO at 25 mg/mL before being diluted to different concentrations two by two. On the multiwell plate, a first series has been planned comprising the culture medium without the test compound of interest. It corresponds to the growth control (control well). These controls serve as reference for comparing bacterial growth with that of the subsequent wells comprising different concentrations of the test compound of interest. The second series of wells comprises the mother solution for the test compound of interest for a concentration in the wells of 256 mg (7 mM). Each series of wells was diluted two by two until the last series for a final concentration of 0.25 mg/L (0.0007 mM). Each concentration is duplicated in the same plate. The plate is incubated for 18 h at 37° C. […] If there is antibacterial activity, the bacterial growth is inhibited, which means that no turbidity or bacterial residue is present.
(§4) The minimum inhibitory concentrations (MIC) are tested on Gram-positive bacterial strains according to the recommendations of the “Clinical Laboratory Standards Institute” (Clinical-Laboratory-Standards-Institute, 6th ed. Approved standard M100-S17. CLSI, Wayne, Pa., 2007). The clinical strains have been isolated in the Hospice de Lyon.
Enterococci: E. faecium (CIP 103510), clinical strains of Enterococci E. faecium: Van A 0151850763 (hereinafter Van A); strain 015 205731401 (hereinafter 1401), […]

[3] = system: S. aureus (ATCC® 292213™); assay: MBC, bacterial count from clear wells reseeded on agar (Example 5); assay type: cell-based; conditions: Table 2
Description: (§5) To determine whether the agents tested are bactericidal, the minimum bactericidal concentration (MBC) is determined. The MBC corresponds to the concentration leaving a number of bacterial survivors of <4 log. For this, a bacterial count is run from clear wells or without bacterial residue (C≤MIC). To do this, a dilution to 1/100 was conducted with the two wells with the same concentration before seeding on a blood agar using the Spiral technique. After 24 h of incubation at 37° C., the visual count allowed determination of the minimum concentration from which there is no bacterial growth.
(§6) To determine the bactericidal effect of compounds presenting bacteriostatic properties, the wells no longer presenting turbidity were reseeded on agar.

[4] = system: E. faecalis (ATCC® 29212™); assay: as above; assay type: cell-based; conditions: Table 2; reseeded on agar
Description: as §5, §6

[5] = system: L. monocytogenes (CIP 103575); assay: as above; assay type: cell-based; conditions: Table 2; reseeded on agar
Description: as §5, §6

[6] = system: L. monocytogenes (CIP 103575), E. faecalis (ATCC® 29212™) and S. aureus (ATCC® 292213™); assay: MBC, statement for all Gram-positive strains tested together; assay type: cell-based; conditions: all three strains
Description: as §5, §6

[7] = system: Staphylococcus Aureus strains; assay: MIC microdilution on wider panel (Example 8), Staphylococcus strains; assay type: cell-based, S. aureus
Description: as §1, §2, §3, §4
Staphylococci S. aureus: ATCC® 29213™, ATCC 25923,
Staphylococci strains Daptomycin-resistant S. aureus (ST 2015-0188), (ST 2014 1288).
as §1, with “10^8” for “1 to 2×10^8”, “10^6” for “1×10^6”

Dodecyl-1,4-d-sorbitan [Example 2e]
CMC (critical micelle concentration) [1]: 0.091 mM
CMC (critical micelle concentration) ([1]; listed as Sorbitan dodecyl ether): 0.09 mM
Minimum inhibitory concentration (MIC) CIP 103510 ([2]; E. faecium CIP 103510): 16 µg/mL
Minimum inhibitory concentration (MIC) Van A ([2]; clinical E. faecium Van A 0151850763): 16 µg/mL
Minimum inhibitory concentration (MIC) 1401 ([2]; clinical E. faecium strain 015 205731401): 8 µg/mL
minimum bactericidal concentration (MBC) S. aureus [3]: 120 µM
minimum bactericidal concentration (MBC) E. faecalis [4]: 120 µM
minimum bactericidal concentration (MBC) L. monocytogenes [5]: 120 µM
MBC for all the Gram-positive strains tested [6]: 120 µM
Minimum inhibitory concentration (MIC) ST 2014 1288 ([7]; Daptomycin-resistant S. aureus ST 2014 1288): 64 µg/mL
Minimum inhibitory concentration (MIC) ST 2015 0188 ([7]; Daptomycin-resistant S. aureus ST 2015-0188): 64 µg/mL
Minimum inhibitory concentration (MIC) HT 2002-0417 ([7]; Methicillin-resistant S. aureus HT 2002-0417): 32 µg/mL
Minimum inhibitory concentration (MIC) HT 2004-0012 ([7]; Methicillin-resistant S. aureus HT 2004-0012): 32 µg/mL
Minimum inhibitory concentration (MIC) HT 2006-1004 ([7]; Methicillin-resistant S. aureus HT 2006-1004): 32 µg/mL
Minimum inhibitory concentration (MIC) LY 199-0053 ([7]; Methicillin-resistant S. aureus LY 199-0053): 32 µg/mL
Minimum inhibitory concentration (MIC) USA 300 ([7]; Methicillin-resistant S. aureus Lac-Deleo USA 300): 32 µg/mL
Minimum inhibitory concentration (MIC) MU 3 ([7]; Methicillin-resistant S. aureus MU 3): 64 µg/mL
Minimum inhibitory concentration (MIC) ATCC 25923 ([7]; S. aureus ATCC 25923): 32 µg/mL
Minimum inhibitory concentration (MIC) ATCC 29213 ([7]; S. aureus ATCC 29213): 32 µg/mL
